# Measured values from patent US20210255193A1, “LYSINE REACTIVE PROBES AND USES THEREOF” (The Scripps Research Institute, priority 2017, published 2021).
# Entries after “also recorded” stand apart in the source; their conditions may differ.
# Assays:
# Test in all cases: competitive isoTOP-ABPP
# Type in all cases: binding
# [1] = molecular target: T1, SIN3A Paired amphipathic helix protein Sin3a (Homo sapiens, UniProt Q96ST3); conditions: for isoTOP-ABPP ratio (R) at liganded lysine Q96ST3_K155 / R value (DMSO/fragment) for probe 1 labeling / isoTOP-ABPP reactivity ratio at lysine Q96ST3_K155: 50 uM, in vitro; for isoTOP-ABPP ratio (R) at liganded lysine Q96ST3_K155: sol, 231; for R value (DMSO/fragment) for probe 1 labeling: Q96ST3_K155; for R value (DMSO/fragment) for probe 1 labeling / isoTOP-ABPP reactivity ratio at lysine Q96ST3_K155: 231 sol; for isoTOP-ABPP ratio, lysine Q96ST3_K155: 50 uM_231_sol_in vitro, possible other lysine Q96ST3_K152
# T1 construct: isoTOP-ABPP experiments performed in cell lysates (in vitro); endogenous in cells; host or cells: soluble proteome of human cancer cell lines (MDA-MB-231; Ramos and Jurkat also prepared)
# T1 sequence (Q96ST3 1-1273): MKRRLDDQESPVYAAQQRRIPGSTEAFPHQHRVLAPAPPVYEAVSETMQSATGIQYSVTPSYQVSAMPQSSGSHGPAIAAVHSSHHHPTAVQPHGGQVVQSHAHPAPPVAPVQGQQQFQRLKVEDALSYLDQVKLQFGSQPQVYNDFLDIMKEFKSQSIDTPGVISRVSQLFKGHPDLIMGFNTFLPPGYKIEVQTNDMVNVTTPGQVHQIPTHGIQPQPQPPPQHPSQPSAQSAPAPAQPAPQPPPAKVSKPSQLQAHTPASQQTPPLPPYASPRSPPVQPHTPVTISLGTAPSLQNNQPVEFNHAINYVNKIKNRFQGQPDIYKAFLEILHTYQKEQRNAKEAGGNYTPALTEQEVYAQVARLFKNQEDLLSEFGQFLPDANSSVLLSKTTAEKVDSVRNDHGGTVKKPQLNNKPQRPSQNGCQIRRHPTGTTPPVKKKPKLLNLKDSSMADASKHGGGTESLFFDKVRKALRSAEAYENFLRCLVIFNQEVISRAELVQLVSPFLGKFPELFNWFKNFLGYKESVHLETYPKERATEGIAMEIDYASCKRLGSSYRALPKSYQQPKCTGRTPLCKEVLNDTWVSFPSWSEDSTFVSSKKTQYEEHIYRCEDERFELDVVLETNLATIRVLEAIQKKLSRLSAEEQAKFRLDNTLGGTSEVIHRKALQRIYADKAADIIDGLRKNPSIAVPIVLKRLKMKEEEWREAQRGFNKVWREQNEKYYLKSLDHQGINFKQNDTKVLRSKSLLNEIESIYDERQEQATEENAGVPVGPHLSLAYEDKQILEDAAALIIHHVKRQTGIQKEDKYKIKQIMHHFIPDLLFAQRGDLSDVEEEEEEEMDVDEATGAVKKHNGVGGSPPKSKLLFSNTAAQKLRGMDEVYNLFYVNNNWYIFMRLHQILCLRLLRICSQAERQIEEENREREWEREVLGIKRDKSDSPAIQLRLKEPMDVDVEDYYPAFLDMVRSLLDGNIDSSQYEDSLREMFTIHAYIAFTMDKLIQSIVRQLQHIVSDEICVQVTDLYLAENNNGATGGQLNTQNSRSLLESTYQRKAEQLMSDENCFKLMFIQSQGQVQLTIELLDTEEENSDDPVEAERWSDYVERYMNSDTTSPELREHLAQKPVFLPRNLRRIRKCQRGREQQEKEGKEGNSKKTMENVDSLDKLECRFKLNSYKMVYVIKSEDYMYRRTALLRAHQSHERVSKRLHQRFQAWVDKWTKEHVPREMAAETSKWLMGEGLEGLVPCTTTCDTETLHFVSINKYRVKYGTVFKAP
# Outline: (§1)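 Fragments at 50 μM (activated esters) or 100 μM (guanidinylating agents) were incubated with 0.5 ml lysate before probe labeling. After 0.1 mM STP-alkyne for 1 h, samples were clicked to isotopically distinct TEV tags, and R taken as DMSO-over-compound MS1 peak-area ratio.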
# [2] = molecular target: T2, NPEPPS Puromycin-sensitive aminopeptidase (Homo sapiens, UniProt P55786); conditions: for isoTOP-ABPP ratio (R) at liganded lysine P55786_K712 / R value (DMSO/fragment) for probe 1 labeling / isoTOP-ABPP reactivity ratio at lysine P55786_K712: 50 uM, in vitro; for isoTOP-ABPP ratio (R) at liganded lysine P55786_K712: sol, 231; for R value (DMSO/fragment) for probe 1 labeling: P55786_K712; for R value (DMSO/fragment) for probe 1 labeling / isoTOP-ABPP reactivity ratio at lysine P55786_K712: 231 sol
# T2 construct: isoTOP-ABPP experiments performed in cell lysates (in vitro); endogenous in cells; host or cells: soluble proteome of human cancer cell lines (MDA-MB-231, Ramos, Jurkat)
# T2 sequence (P55786 whole entry, the tested form may be a part): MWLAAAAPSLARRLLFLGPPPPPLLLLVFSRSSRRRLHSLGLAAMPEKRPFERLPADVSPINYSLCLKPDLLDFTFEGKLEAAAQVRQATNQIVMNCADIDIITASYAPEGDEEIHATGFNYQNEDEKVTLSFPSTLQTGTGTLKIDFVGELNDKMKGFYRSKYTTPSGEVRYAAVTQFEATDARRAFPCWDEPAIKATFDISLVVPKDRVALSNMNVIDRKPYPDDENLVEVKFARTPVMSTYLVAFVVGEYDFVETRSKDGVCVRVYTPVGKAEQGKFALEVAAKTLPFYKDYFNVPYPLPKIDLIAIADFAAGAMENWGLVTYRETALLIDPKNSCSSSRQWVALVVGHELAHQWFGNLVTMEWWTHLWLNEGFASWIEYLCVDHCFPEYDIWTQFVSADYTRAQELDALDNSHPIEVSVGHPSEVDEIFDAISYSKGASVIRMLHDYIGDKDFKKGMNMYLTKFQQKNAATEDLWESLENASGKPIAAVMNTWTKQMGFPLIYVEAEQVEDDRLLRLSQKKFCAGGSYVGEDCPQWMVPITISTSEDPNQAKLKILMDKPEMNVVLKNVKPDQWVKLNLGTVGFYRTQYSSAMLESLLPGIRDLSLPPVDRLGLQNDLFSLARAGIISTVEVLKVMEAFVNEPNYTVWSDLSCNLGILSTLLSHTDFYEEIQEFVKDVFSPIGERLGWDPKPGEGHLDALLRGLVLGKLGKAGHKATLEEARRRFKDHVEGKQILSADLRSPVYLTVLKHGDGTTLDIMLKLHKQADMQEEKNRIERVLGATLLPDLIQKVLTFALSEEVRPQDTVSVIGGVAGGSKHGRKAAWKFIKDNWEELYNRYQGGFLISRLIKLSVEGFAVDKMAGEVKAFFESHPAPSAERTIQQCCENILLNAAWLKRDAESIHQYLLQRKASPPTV
# Outline: as §1
# [3] = molecular target: T3, XRCC6 X-ray repair cross-complementing protein 6 (Homo sapiens, UniProt P12956); conditions: for isoTOP-ABPP ratio (R) at liganded lysine P12956_K351 / R value (DMSO/fragment) for probe 1 labeling / isoTOP-ABPP reactivity ratio at lysine P12956_K351: 50 uM, in vitro; for isoTOP-ABPP ratio (R) at liganded lysine P12956_K351: sol, 231; for R value (DMSO/fragment) for probe 1 labeling: P12956_K351; for R value (DMSO/fragment) for probe 1 labeling / isoTOP-ABPP reactivity ratio at lysine P12956_K351: 231 sol
# T3 construct: isoTOP-ABPP experiments performed in cell lysates (in vitro); endogenous in cells; host or cells: soluble proteome of human cancer cell lines (MDA-MB-231; Ramos and Jurkat also prepared)
# T3 sequence (P12956 2-609 limits assumed): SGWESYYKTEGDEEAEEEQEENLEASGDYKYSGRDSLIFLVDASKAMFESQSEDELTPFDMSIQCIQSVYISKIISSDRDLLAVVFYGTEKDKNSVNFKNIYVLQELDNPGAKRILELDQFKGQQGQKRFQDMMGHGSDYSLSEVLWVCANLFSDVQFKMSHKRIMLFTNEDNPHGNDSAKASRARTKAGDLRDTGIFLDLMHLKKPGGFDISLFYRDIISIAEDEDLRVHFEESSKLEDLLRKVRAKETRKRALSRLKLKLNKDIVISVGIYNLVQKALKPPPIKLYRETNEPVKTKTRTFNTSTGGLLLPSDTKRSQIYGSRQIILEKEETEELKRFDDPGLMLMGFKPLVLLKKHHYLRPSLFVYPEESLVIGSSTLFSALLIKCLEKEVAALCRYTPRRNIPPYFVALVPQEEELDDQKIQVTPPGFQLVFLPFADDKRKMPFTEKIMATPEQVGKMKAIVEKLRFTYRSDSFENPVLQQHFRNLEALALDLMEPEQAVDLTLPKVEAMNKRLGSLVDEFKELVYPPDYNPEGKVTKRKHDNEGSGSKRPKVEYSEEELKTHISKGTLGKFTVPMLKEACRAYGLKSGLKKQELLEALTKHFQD
# T3 sequence (P13010 2-732 partner limits assumed): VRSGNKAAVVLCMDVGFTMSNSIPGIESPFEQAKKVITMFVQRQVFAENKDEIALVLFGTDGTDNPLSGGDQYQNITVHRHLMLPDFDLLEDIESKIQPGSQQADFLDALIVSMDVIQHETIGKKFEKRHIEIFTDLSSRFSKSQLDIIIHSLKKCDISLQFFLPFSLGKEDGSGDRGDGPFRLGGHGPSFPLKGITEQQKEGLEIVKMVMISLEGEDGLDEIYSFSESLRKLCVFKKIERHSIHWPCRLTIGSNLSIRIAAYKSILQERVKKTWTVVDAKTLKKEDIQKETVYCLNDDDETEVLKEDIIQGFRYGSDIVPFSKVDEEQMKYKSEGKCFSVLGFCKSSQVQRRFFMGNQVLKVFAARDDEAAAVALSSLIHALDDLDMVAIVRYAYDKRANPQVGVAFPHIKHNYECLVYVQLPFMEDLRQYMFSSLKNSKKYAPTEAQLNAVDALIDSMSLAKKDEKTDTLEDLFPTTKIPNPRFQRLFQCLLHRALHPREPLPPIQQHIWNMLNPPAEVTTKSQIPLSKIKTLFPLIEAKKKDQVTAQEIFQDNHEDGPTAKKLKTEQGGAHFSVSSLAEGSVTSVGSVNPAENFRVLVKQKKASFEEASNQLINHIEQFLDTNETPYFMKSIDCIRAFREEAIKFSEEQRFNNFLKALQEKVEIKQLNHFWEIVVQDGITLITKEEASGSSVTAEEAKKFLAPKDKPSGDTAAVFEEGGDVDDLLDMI
# Outline: as §1
Structure (SMILES),isoTOP-ABPP ratio (R) at liganded lysine Q96ST3_K155 [1],isoTOP-ABPP ratio (R) at liganded lysine P55786_K712 [2],isoTOP-ABPP ratio (R) at liganded lysine P12956_K351 [3],isoTOP-ABPP reactivity ratio at lysine Q96ST3_K155 [1],isoTOP-ABPP reactivity ratio at lysine P55786_K712 [2],isoTOP-ABPP reactivity ratio at lysine P12956_K351 [3],further results
"CC(C)(C)OC(=O)NCCCC(=O)Oc1ccc([N+](=O)[O-])cc1[N+](=O)[O-] [fragment 41, 2,4-Dinitrophenyl 4-((tert-butoxycarbonyl)amino)butanoate]",1.3,1.5,1.6,,,,
"Cn1cc(CC(=O)Oc2c(F)c(F)c(F)c(F)c2F)c2ccccc21 [fragment 22, Pentafluorophenyl 2-(1-methyl-1H-indol-3-yl)acetate]",,,,,,,R value (DMSO/fragment) for probe 1 labeling [1]: 3.9; R value (DMSO/fragment) for probe 1 labeling [2]: 1.3; R value (DMSO/fragment) for probe 1 labeling [3]: 3.6
"O=C(Oc1ccc([N+](=O)[O-])cc1[N+](=O)[O-])c1ccc(-c2ccccc2)cc1 [fragment 37, 2,4-Dinitrophenyl [1,1′-biphenyl]-4-carboxylate]",1.1,0.9,1.3,,,,
"COc1cc(CCC(=O)Oc2ccc([N+](=O)[O-])cc2[N+](=O)[O-])cc(OC)c1OC [fragment 33, 2,4-Dinitrophenyl 3-(3,4,5-trimethoxyphenyl)propanoate]",,,,2.0,1.2,2.5,
"O=C(Oc1c(F)c(F)c(F)c(F)c1F)C(c1ccccc1)c1ccccc1 [fragment 20, Pentafluorophenyl 2,2-diphenylacetate]",,,,,,,R value (DMSO/fragment) for probe 1 labeling [1]: 1.2; R value (DMSO/fragment) for probe 1 labeling [2]: 0.9; R value (DMSO/fragment) for probe 1 labeling [3]: 2.3
"O=C(Oc1ccc([N+](=O)[O-])cc1[N+](=O)[O-])c1ccc2ccccc2n1 [fragment 35, 2,4-Dinitrophenyl quinoline-2-carboxylate]",1.6,1.3,1.5,,,,
"O=C(CCc1ccc2c(c1)OCO2)Oc1ccc([N+](=O)[O-])cc1[N+](=O)[O-] [fragment 45, 2,4-Dinitrophenyl 3-(benzo[d][1,3]dioxol-5-yl)propanoate]",,,,,,,"isoTOP-ABPP ratio, lysine Q96ST3_K155 [1]: 1.5; isoTOP-ABPP ratio, lysine P55786_K712 ([2]; 50 uM_231_sol_in vitro): 1.3; isoTOP-ABPP ratio, lysine P12956_K351 ([3]; 50 uM_231_sol_in vitro): 1.9"
"COc1cc(CCC(=O)Oc2c(F)c(F)c(F)c(F)c2F)cc(OC)c1OC [fragment 23, Pentafluorophenyl 3-(3,4,5-trimethoxyphenyl)propanoate]",,,,,,,R value (DMSO/fragment) for probe 1 labeling [1]: 4.1; R value (DMSO/fragment) for probe 1 labeling [2]: 1.2; R value (DMSO/fragment) for probe 1 labeling [3]: 1.2
"O=C(Oc1ccc([N+](=O)[O-])cc1[N+](=O)[O-])c1ccccc1Nc1cccc(C(F)(F)F)c1 [fragment 40, 2,4-Dinitrophenyl 2-((3-(trifluoromethyl)phenyl)amino)benzoate]",1.1,1.0,1.0,,,,
"O=C(ON1C(=O)CCC1=O)c1cc(C(F)(F)F)cc(C(F)(F)F)c1 [fragment 46, 3,5-Bis(trifluoromethyl)benzoic acid NHS ester]",,,,,,,"isoTOP-ABPP ratio, lysine Q96ST3_K155 [1]: 4.4; isoTOP-ABPP ratio, lysine P55786_K712 ([2]; 50 uM_231_sol_in vitro): 1.3; isoTOP-ABPP ratio, lysine P12956_K351 ([3]; 50 uM_231_sol_in vitro): 2.5"
"O=C(Oc1ccc([N+](=O)[O-])cc1[N+](=O)[O-])c1ccc(Oc2ccccc2)cc1 [fragment 39, 2,4-Dinitrophenyl 4-phenoxybenzoate]",1.0,0.9,1.6,,,,
"O=C(Oc1c(F)c(F)c(F)c(F)c1F)c1ccc2ccccc2n1 [fragment 25, Pentafluorophenyl quinoline-2-carboxylate]",,,,11.1,1.1,1.6,
"O=C(Oc1ccc([N+](=O)[O-])cc1[N+](=O)[O-])C(c1ccccc1)c1ccccc1 [fragment 30, 2,4-Dinitrophenyl 2,2-diphenylacetate]",,,,20.0,1.5,20.0,
"O=C(Oc1ccc([N+](=O)[O-])cc1[N+](=O)[O-])c1cc(C(F)(F)F)cc(C(F)(F)F)c1 [fragment 31, 2,4-Dinitrophenyl 3,5-bis(trifluoromethyl)benzoate]",,,,18.6,1.1,2.6,
"O=C(CN1C(=O)c2ccccc2C1=O)Oc1c(F)c(F)c(F)c(F)c1F [fragment 27, Pentafluorophenyl 2-(1,3-dioxoisoindolin-2-yl)acetate]",,,,11.7,1.2,3.1,
"CC(=O)Oc1ccc([N+](=O)[O-])cc1[N+](=O)[O-] [fragment 43, 2,4-Dinitrophenyl acetate]",1.2,2.3,1.5,,,,
"O=C(Oc1ccc([N+](=O)[O-])cc1[N+](=O)[O-])C(c1ccccc1)(c1ccccc1)c1ccccc1 [fragment 42, 2,4-Dinitrophenyl 2,2,2-triphenylacetate]",0.9,0.9,1.0,,,,
"O=C(Oc1c(F)c(F)c(F)c(F)c1F)c1cc(C(F)(F)F)cc(C(F)(F)F)c1 [fragment 21, Pentafluorophenyl 3,5-bis(trifluoromethyl)benzoate]",,,,,,,"R value (DMSO/fragment) for probe 1 labeling [1]: 20.0; engagement of K155, competition of probe 1 labeling ([1]; SIN3A K155, 21 50 μM): engages K155 in SIN3A; also recorded: fully competes probe 1 labeling of K155; R value (DMSO/fragment) for probe 1 labeling [2]: 0.9; R value (DMSO/fragment) for probe 1 labeling [3]: 1.4"
"Cn1cc(CC(=O)Oc2ccc([N+](=O)[O-])cc2[N+](=O)[O-])c2ccccc21 [fragment 32, 2,4-Dinitrophenyl 2-(1-methyl-1H-indol-3-yl)acetate]",,,,17.5,1.4,13.4,
"O=C(CCc1cn(-c2ccccc2)nc1-c1ccccc1)Oc1ccc([N+](=O)[O-])cc1[N+](=O)[O-] [fragment 29, 2,4-Dinitrophenyl 3-(1,3-diphenyl-1H-pyrazol-4-yl)propanoate]",,,,1.5,1.1,3.2,
"O=C(Oc1c(F)c(F)c(F)c(F)c1F)C1CCN(C(=O)OCc2ccccc2)CC1 [fragment 24, 1-Benzyl 4-(pentafluorophenyl) piperidine-1,4-dicarboxylate]",,,,1.1,1.0,1.3,
"NC(=O)c1cc(C(F)(F)F)cc(C(F)(F)F)c1 [fragment 51, reference compound]",,,,,,,"isoTOP-ABPP ratio, lysine Q96ST3_K155 [1]: 1.1; isoTOP-ABPP ratio, lysine P55786_K712 ([2]; 50 uM_231_sol_in vitro): 1.0; isoTOP-ABPP ratio, lysine P12956_K351 ([3]; 50 uM_231_sol_in vitro): 0.8"
"COC(=O)NC(=NC(=O)OCC1c2ccccc2-c2ccccc21)n1cccn1 [fragment 49, N-Methoxycarbonyl-N′-9-fluorenylmethoxycarbonyl-pyrazole-1-carboxamidine]",,,,,,,"isoTOP-ABPP ratio, lysine P55786_K712 ([2]; 100 uM_231_sol_in vitro): 1.3; isoTOP-ABPP ratio, lysine P12956_K351 ([3]; 100 uM_231_sol_in vitro): 20.0"
